Experimental data: patent US11596639B2, “Substituted indole Mcl-1 inhibitors” (Vanderbilt University, priority 2016, dated 2023)
pKi: −log10 of the molar value. Where two headings read alike, the source gives them in different places.

Legend:
[1] = biological target: Mcl-1 (Homo sapiens (Human), UniProt Q07820); test: TR-FRET binding assay, FITC-Bak peptide and MBP-tagged Mcl-1; settings: read-out: Ki for Inhibition of Mcl-1 by TR-FRET assay
Experimental: Compounds are diluted in DMSO in a 16-point, semilog serial dilution scheme. […] The plate was mixed and incubated for 3 hours at room temperature. […] TR-FRET signal is plotted and IC50 and Ki values are calculated in the same manner as the fluorescence polarization anisotropy based competition assays.

[2] = system: H929 human cancer cell lines; test: Cellular viability / proliferation (Cell TiterGlo, 72 h); assay type: cell-based
Method in brief: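 1,000 cells/well, 10% FBS medium; compound added at 24 h, 2-fold dilutions from 50 μM top, DMSO <1% final. 72 h exposure, CellTiterGlo 30 min RT dark, luminescence read. IC50 by 4-parameter fit.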

[3] = Homo sapiens, NCI-H929, 72 h, read-out: GI50 on cellular proliferation of H929 human cancer cell lines, H929 cells, 72 h, Cell TiterGlo, 10% FBS

Mcl-1, sequence (Q07820 172-327): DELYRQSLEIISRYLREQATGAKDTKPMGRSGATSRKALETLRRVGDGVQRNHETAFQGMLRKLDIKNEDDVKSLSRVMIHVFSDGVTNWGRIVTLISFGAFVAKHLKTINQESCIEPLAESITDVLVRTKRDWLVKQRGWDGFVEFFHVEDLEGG

Row | SMILES | pKi [1] | GI50 [2, 3] [µM] | GI50 ([2]; read-out: GI50 on cellular proliferation of H929 human cancer cell lines, H929 cells, 72 h, Cell TiterGlo, 10% FBS) [µM] | GI50 ([2]; H929 cells, 72 h, Cell TiterGlo, 10% FBS, read-out: GI50 on cellular proliferation of H929 human cancer cell lines) [µM]
1 | Cc1cc(OCCCc2c3n(c4c(-c5c(C)nn(C)c5C)c(Cl)ccc24)[C@H](C)CN(c2cc(NC(=O)CCN(C)C)cc4c(C(=O)O)cn(C)c24)C3=O)cc(C)c1Cl [Example 541, (R)-7-(7-Chloro-10-(3-(4-chloro-3,5-dimethylphenoxy)propyl)-4-methyl-1-oxo-6-(1,3,5-trimethyl-1H-pyrazol-4-yl)-3,4-dihydropyrazino[1,2-a]indol-2(1H)-yl)-5-(3-(dimethylamino)propanamido)-1-methyl-1H-indole-3-carboxylic acid] | 9.28 | 1.7 | – | –
2 | Cc1cc(OCCCc2c3n(c4c(-c5c(C)nn(C)c5C)c(Cl)ccc24)[C@H](C)CN(c2cc(C(=O)O)nc4ccccc24)C3=O)cc(C)c1Cl [Example 669, (R)-4-(7-chloro-10-(3-(4-chloro-3,5-dimethylphenoxy)propyl)-4-methyl-1-oxo-6-(1,3,5-trimethyl-1H-pyrazol-4-yl)-3,4-dihydropyrazino[1,2-a]indol-2(1H)-yl)quinoline-2-carboxylic acid] | 9.00 | 7.6 | – | –
3 | COCc1cccn2nc(-c3ccc4c(c3)c(N3C[C@@H](C)n5c(c(CCCOc6cc(C)c(Cl)c(C)c6)c6ccc(Cl)c(-c7c(C)nn(C)c7C)c65)C3=O)cn4C)nc12 [Example 695, (R)-7-Chloro-10-(3-(4-chloro-3,5-dimethylphenoxy)propyl)-2-(5-(8-(methoxymethyl)-[1,2,4]triazolo[1,5-a]pyridin-2-yl)-1-methyl-1H-indol-3-yl)-4-methyl-6-(1,3,5-trimethyl-1H-pyrazol-4-yl)-3,4-dihydropyrazino[1,2-a]indol-1(2H)-one] | 9.24 | 0.28 | – | –
4 | COCCn1cc(C(=O)O)c2cc(OC)cc(N3C[C@@H](C)n4c(c(CCCOc5cc(C)c(Cl)c(C)c5)c5ccc(Cl)c(-c6c(C)nn(C)c6C)c54)C3=O)c21 (single isomer, unassigned) [Example 673] | 9.51 | – | 0.23 | –
5 | COCCn1cnc(-c2ccc3c(c2)c(N2C[C@@H](C)n4c(c(CCCOc5cc(C)c(Cl)c(C)c5)c5ccc(Cl)c(-c6c(C)nn(C)c6C)c54)C2=O)cn3C)n1 [Example 530, (R)-7-Chloro-10-(3-(4-chloro-3,5-dimethylphenoxy)propyl)-2-(S-(1-(2-methoxyethyl)-1H-1,2,4-triazol-3-yl)-1-methyl-1H-indol-3-yl)-4-methyl-6-(1,3,5-trimethyl-1H-pyrazol-4-yl)-3,4-dihydropyrazino[1,2-a]indol-1(2H)-one] | > 9.70 | – | – | 0.23
6 | COCCn1c(C(=O)O)cc2cc(C)cc(N3C[C@@H](C)n4c(c(CCCOc5cc(C)c(Cl)c(C)c5)c5ccc(Cl)c(-c6c(C)nc(CN7CCOCC7)nc6C)c54)C3=O)c21 [Example 717, (R)-7-(7-chloro-10-(3-(4-chloro-3,5-dimethylphenoxy)propyl)-6-(4,6-dimethyl-2-(morpholinomethyl)pyrimidin-5-yl)-4-methyl-1-oxo-3,4-dihydropyrazino[1,2-a]indol-2(1H)-yl)-1-(2-methoxyethyl)-5-methyl-1H-indole-2-carboxylic acid] | > 9.70 | < 0.2 | – | –
7 | COCCOc1cc(N2C[C@@H](C)n3c(c(CCCOc4cc(C)c(Cl)c(C)c4)c4ccc(Cl)c(-c5c(C)nn(C)c5C)c43)C2=O)c2c(c1)c(C(=O)O)cn2C [Example 654, (R)-7-(7-chloro-10-(3-(4-chloro-3,5-dimethylphenoxy)propyl)-4-methyl-1-oxo-6-(1,3,5-trimethyl-1H-pyrazol-4-yl)-3,4-dihydropyrazino[1,2-a]indol-2(1H)-yl)-5-(2-methoxyethoxy)-1-methyl-1H-indole-3-carboxylic acid] | 9.47 | 0.34 | – | –
8 | COCCn1cc(N2C[C@@H](C)n3c(c(CCCOc4cc(C)c(Cl)c(C)c4)c4ccc(Cl)c(-c5c(C)nn(C)c5C)c43)C2=O)c2cc(-c3ncn(CC4CCOCC4)n3)ccc21 [Example 624, (R)-7-Chloro-10-(3-(4-chloro-3,5-dimethylphenoxy)propyl)-2-(1-(2-methoxyethyl)-5-(1-((tetrahydro-2H-pyran-4-yl)methyl)-1H-1,2,4-triazol-3-yl)-1H-indol-3-yl)-4-methyl-6-(1,3,5-trimethyl-1H-pyrazol-4-yl)-3,4-dihydropyrazino[1,2-a]indol-1(2H)-one] | 8.02 | 0.43 | – | –
9 | COCCn1cc(N2C[C@@H](C)n3c(c(CCCOc4cc(C)c(Cl)c(C)c4)c4ccc(Cl)c(-c5c(C)nc(CN6CCN(C)CC6)nc5C)c43)C2=O)c2cc(C(=O)O)ccc21 [Example 559, (R)-3-(7-chloro-10-(3-(4-chloro-3,5-dimethylphenoxy)propyl)-6-(4,6-dimethyl-2-((4-methylpiperazin-1-yl)methyl)pyrimidin-5-yl)-4-methyl-1-oxo-3,4-dihydropyrazino[1,2-a]indol-2(1H)-yl)-1-(2-methoxyethyl)-1H-indole-5-carboxylic acid] | > 9.70 | 0.43 | – | –
10 | Cc1cc(OCCCc2c3n(c4c(-c5c(C)nn(C)c5C)c(Cl)ccc24)[C@H](C)CN(c2cn(CC(=O)N4CCN(C)CC4)c4ccc(-c5ncn(C)n5)cc24)C3=O)cc(C)c1Cl [Example 546, (R)-7-Chloro-10-(3-(4-chloro-3,5-dimethylphenoxy)propyl)-4-methyl-2-(5-(1-methyl-1H-1,2,4-triazol-3-yl)-1-(2-(4-methylpiperazin-1-yl)-2-oxoethyl)-1H-indol-3-yl)-6-(1,3,5-trimethyl-1H-pyrazol-4-yl)-3,4-dihydropyrazino[1,2-a]indol-1(2H)-one] | 9.42 | 0.42 | – | –
11 | Cc1cc(OCCCc2c3n(c4c(-c5c(C)cc(O)cc5C)c(Cl)ccc24)[C@H](C)CNC3=O)cc(C)c1Cl [Example 488, (R)-7-chloro-10-(3-(4-chloro-3,5-dimethylphenoxy)propyl)-6-(4-hydroxy-2,6-dimethylphenyl)-4-methyl-3,4-dihydropyrazino[1,2-a]indol-1(2H)-one] | 7.41 | 8.7 | – | –
12 | CCOCCn1c(C(=O)O)cc2cc(C)cc(N3C[C@@H](C)n4c(c(CCCOc5cc(C)c(Cl)c(C)c5)c5ccc(Cl)c(-c6c(C)nn(C)c6C)c54)C3=O)c21 [Example 579, (R)-7-(7-chloro-10-(3-(4-chloro-3,5-dimethylphenoxy)propyl)-4-methyl-1-oxo-6-(1,3,5-trimethyl-1H-pyrazol-4-yl)-3,4-dihydropyrazino[1,2-a]indol-2(1H)-yl)-1-(2-ethoxyethyl)-5-methyl-1H-indole-2-carboxylic acid] | > 9.70 | 0.24 | – | –
13 | Cc1cc(OCCCc2c3n(c4c(-c5c(C)nn(C)c5C)c(Cl)ccc24)[C@H](C)CN(c2cc(C(=O)O)cc4cc(C(=O)O)n(C)c24)C3=O)cc(C)c1Cl [Example 697, (R)-7-(7-chloro-10-(3-(4-chloro-3,5-dimethylphenoxy)propyl)-4-methyl-1-oxo-6-(1,3,5-trimethyl-1H-pyrazol-4-yl)-3,4-dihydropyrazino[1,2-a]indol-2(1H)-yl)-1-methyl-1H-indole-2,5-dicarboxylic acid] | > 9.70 | 2 | – | –
14 | Cc1ccnc(Cn2cc(C(=O)O)c3cccc(N4C[C@@H](C)n5c(c(CCCOc6cc(C)c(Cl)c(C)c6)c6ccc(Cl)c(-c7c(C)nn(C)c7C)c65)C4=O)c32)c1 [Example 480, (R)-7-(7-Chloro-10-(3-(4-chloro-3,5-dimethylphenoxy)propyl)-4-methyl-1-oxo-6-(1,3,5-trimethyl-1H-pyrazol-4-yl)-3,4-dihydropyrazino[1,2-a]indol-2(1H)-yl)-1-((4-methylpyridin-2-yl)methyl)-1H-indole-3-carboxylic acid] | > 9.70 | 0.25 | – | –
